Test results: ChEMBL document CHEMBL1667742, “Angiotensin II receptor type 1 (AT1) selective nonpeptidic antagonists--a perspective” (Bioorg Med Chem, 2010)
Where a chain is given by its changes, count along the chain named. Values belong to the molecule of their own block, whether it stands above or below them.

How the values were obtained:
[1] = Binding affinity to angiotensin AT1 receptor in rat liver membranes; assay type: cell membranes, Membrane
[2] = target: T1, Type-1 angiotensin II receptor (Homo sapiens) (UniProt P30556); experiment: Ratio of compound IC50 to losartan IC50 for angiotensin AT1 receptor
T1 sequence (whole entry): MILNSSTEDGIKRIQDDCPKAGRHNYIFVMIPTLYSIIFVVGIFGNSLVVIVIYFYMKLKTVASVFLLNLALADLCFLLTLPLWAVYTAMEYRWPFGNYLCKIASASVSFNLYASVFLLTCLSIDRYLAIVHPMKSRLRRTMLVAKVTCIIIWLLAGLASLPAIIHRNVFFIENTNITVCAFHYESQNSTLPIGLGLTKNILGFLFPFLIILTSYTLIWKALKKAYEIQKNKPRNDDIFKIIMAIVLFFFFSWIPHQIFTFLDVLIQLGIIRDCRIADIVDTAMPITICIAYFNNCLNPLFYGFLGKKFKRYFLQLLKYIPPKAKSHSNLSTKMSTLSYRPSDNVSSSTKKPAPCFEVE

Rattus norvegicus [3] = experiment: Antihypertensive activity in conscious normotensive rat at 0.1 mg/kg after 6 hrs; assay type: functional
Rattus norvegicus [4] = experiment: Antihypertensive activity in iv dosed conscious rat; assay type: functional
[5] = target: T2, Type-1 angiotensin II receptor (Cavia porcellus, UniProt Q9WV26); experiment: Binding affinity to angiotensin AT1 receptor in guinea pig adrenal cortex membranes; assay type: cell membranes, Membrane
T2 sequence (Q9WV26 whole entry): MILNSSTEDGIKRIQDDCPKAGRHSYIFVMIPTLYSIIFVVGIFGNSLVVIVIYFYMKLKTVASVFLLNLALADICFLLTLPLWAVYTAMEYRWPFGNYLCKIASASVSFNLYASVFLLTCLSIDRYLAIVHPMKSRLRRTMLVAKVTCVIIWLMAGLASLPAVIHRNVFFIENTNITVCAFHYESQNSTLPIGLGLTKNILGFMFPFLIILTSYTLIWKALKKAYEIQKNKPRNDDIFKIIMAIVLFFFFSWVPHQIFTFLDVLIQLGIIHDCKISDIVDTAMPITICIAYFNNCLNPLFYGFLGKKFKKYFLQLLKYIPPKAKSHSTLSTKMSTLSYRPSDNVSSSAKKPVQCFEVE

Rattus norvegicus [6] = organism: Rattus norvegicus; experiment: Displacement of radiolabeled angiotensin2 from angiotensin AT1 receptor in rat adrenal cortex membranes; assay type: cell membranes; conditions: Membrane, concentration not given here
[7] = target: T3, Type-1 angiotensin II receptor (Oryctolagus cuniculus, UniProt P34976); experiment: Antagonist activity at angiotensin AT1 receptor in rabbit aortic strip assessed as inhibition of angiotensin 2-induced contractile response; assay type: functional; conditions: read-out: pA2 (converted)
T3 sequence (P34976 whole entry): T1 sequence (whole entry) with I2M, V49A, I254V, I270V, R272H, R311K, T349S, A353V

[8] = target: T3, Type-1 angiotensin II receptor; experiment: Antagonist activity at angiotensin AT1 receptor in rabbit adrenal cortex assessed as inhibition of angiotensin 2-induced […] response; assay type: functional, tissue-based
[9] = target: T4, Type-1 angiotensin II receptor (Oryctolagus cuniculus) (UniProt P34976); experiment: Antagonist activity at angiotensin AT1 receptor in rabbit aorta; assay type: functional, tissue-based
T4 sequence (whole entry): T1 sequence (whole entry) with I2M, V49A, I254V, I270V, R272H, R311K, T349S, A353V

[10] = Displacement of [3H]-angiotensin 2 from angiotensin AT1 receptor in rat liver membranes; assay type: cell membranes, Membrane
Rattus norvegicus [11] = experiment: Antihypertensive activity in po dosed renal hypertensive rat model assessed as reduction of blood pressure; assay type: functional
Rattus norvegicus [12] = experiment: Antihypertensive activity in iv dosed renal hypertensive rat model assessed as reduction of blood pressure; assay type: functional
[13] = target: T1, Type-1 angiotensin II receptor (Homo sapiens); experiment: (§1) Antagonist activity at angiotensin AT1 receptor; assay type: functional
[14] = target: T1, Type-1 angiotensin II receptor (Homo sapiens); experiment: Ratio of compound Ki to losartan Ki for angiotensin AT1 receptor
Rattus norvegicus [15] = experiment: Ratio of compound ED50 to losartan ED50 for po dosed renal hypertensive rat model; assay type: functional
Rattus norvegicus [16] = organism: Rattus norvegicus; experiment: Antihypertensive activity in spontaneous hypertensive rat model assessed as reduction of blood pressure; assay type: functional
Rattus norvegicus [17] = experiment: Inhibition of angiotensin 2-induced response in intraduodenally dosed pithed normotensive rat; assay type: functional
[18] = target: T5, Type-1 angiotensin II receptor (Homo sapiens, UniProt P30556); experiment: as §1; assay type: functional
T5 sequence (P30556 whole entry): T1 sequence (whole entry)

Rattus norvegicus [19] = experiment: Antihypertensive activity in conscious normotensive rat assessed as inhibition of angiotensin 2-induced pressor response at 1 mg/kg, iv after 6 hrs; assay type: functional
[20] = target: T5, Type-1 angiotensin II receptor; experiment: Antagonist activity at angiotensin AT1 receptor in human PLC-PRF5 cells; assay type: functional, cell-based
[21] = target: T5, Type-1 angiotensin II receptor; experiment: Displacement of [3H]-angiotensin 2 from angiotensin AT1 receptor in human PLC-PRF5 cells; assay type: cell-based
[22] = target: T5, Type-1 angiotensin II receptor; experiment: Binding affinity to angiotensin AT1 receptor
Rhesus monkey = experiment: Antihypertensive activity in rhesus monkey assessed as inhibition of angiotensin 2-induced pressor response at 10 mg/kg, po after 4 to 24 hrs; assay type: functional; conditions: Macaca mulatta
[23] = Oral bioavailability in rat; assay type: ADME, organism-based; conditions: in vivo
[24] = target: T3, Type-1 angiotensin II receptor; experiment: Displacement of [125I]-Sar1Ile8-angiotensin 2 from angiotensin AT1 receptor in rabbit aortic membranes; assay type: cell membranes
[25] = Binding affinity to angiotensin AT1 receptor in rat lung membranes; assay type: cell membranes, Membrane
Rattus norvegicus [26] = experiment: Antihypertensive activity in conscious normotensive rat after 24 hrs; assay type: functional

Structure (SMILES): CCCCC1=NC2(CCCC2)C(=O)N1Cc1ccc(-c2ccccc2-c2nnn[nH]2)cc1 [IRBESARTAN]
IC50 [1]: 1.3 nM
Ratio IC50 [2]: 10

Structure (SMILES): CCCCc1nc(-c2ccccc2Cl)c(C(=O)O)n1Cc1ccc(-c2ccccc2-c2nn[nH]n2)cc1
Activity (Rattus norvegicus [3]): 88%

Structure (SMILES): CCCc1nc(CN2CCN(c3ccccn3)CC2)c(C(=O)O)n1Cc1ccc(-c2ccccc2-c2nn[nH]n2)cc1
ED50 (Rattus norvegicus [11]): 1.65 mg/kg
ED50 (Rattus norvegicus [12]): 0.18 mg/kg

Structure (SMILES): CCCCC1=NC(Cl)=C(C(=O)O)C(C)N1Cc1ccc(-c2ccccc2-c2nn[nH]n2)cc1 (configuration not stated)
Kb [13]: 0.45 nM
Ratio Ki [14]: 10
Ratio ED50 (Rattus norvegicus [15]): 20
ED50 (Rattus norvegicus [16]): 0.08 µmol/kg

Structure (SMILES): CC1CC(=O)NN=C1c1ccc2nc(C3CC3)n(Cc3ccc(-c4ccccc4-c4nn[nH]n4)cc3)c2c1 (configuration not stated)
inhibition (INH) (Rattus norvegicus [17]): 80%
IC50 [18]: 1.8 nM

Structure (SMILES): CCCCc1nn(-c2ccccc2C(F)(F)F)c(=O)n1Cc1ccc(-c2ccccc2-c2nn[nH]n2)cc1
inhibition in vivo at 1 mg/kg (Rattus norvegicus [19]): 70%

Structure (SMILES): CCCCc1nn(CC(C)(C)C)c(=O)n1Cc1ccc(-c2ccccc2-c2nnn[nH]2)cc1
IC50 [24]: 1.2 nM

Structure (SMILES): CCCc1nn(Cc2ccccc2)c(C(=O)O)c1Cc1ccc(-c2ccccc2-c2nn[nH]n2)cc1
Activity (Rattus norvegicus [26]): 90%

More lines, main results first:

IC50 [5]: 24 nM
Structure (SMILES): CCc1cc(Oc2ccc(-c3ccccc3-c3nnn[nH]3)cc2)c2ncccc2n1
ED50 (Rattus norvegicus [4]): 0.86 mg/kg

inhibition (Rattus norvegicus [6]): 60%
Structure (SMILES): CCCc1nc(C)n(CCO)c(=O)c1Cc1ccc(-c2ccccc2-c2nnn[nH]2)cc1

Kb [7]: 12.6 nM
IC50 [8]: 100 nM
Structure (SMILES): CCOC(=O)/C=C1\N(Cc2ccc(-c3ccccc3-c3nn[nH]n3)cc2)C(=O)CC1(CC)CC

pKb [9]: 9
pKi [10]: 9.3
Structure (SMILES): CCc1nc(C2CC2)c(C(N)=O)n1Cc1ccc2oc(-c3ccccc3NS(=O)(=O)C(F)(F)F)c(Br)c2c1

IC50 [20]: 22 nM
Ki [21]: 25 nM
Structure (SMILES): CCCCN1CC2(CN1Cc1ccc(-c3ccccc3-c3nnn[nH]3)cc1)C(=O)CCC2=O

Ki [22]: 1.7 nM
bioavailability [23]: 44%
Structure (SMILES): CCCCc1nn(-c2ccccc2C(F)(F)F)c(=O)n1Cc1ccc(-c2ccccc2S(=O)(=O)NC(=O)c2ccccc2)cc1 [L-159913]
inhibition in vivo at 10 mg/kg (Rhesus monkey): 76%

Ki [25]: 3.7 nM
Structure (SMILES): CCCc1nc2c(C)cc(-c3nc4ccccc4n3C)cc2n1Cc1ccc(-c2ccccc2C(=O)O)cc1
